Results on 58 compounds are retold here after US10150728B2, “Alkylene derivatives” (Shionogi & Co., Ltd., priority 2013, dated 2018).

Chain of recombinant human ACC2 (O00763 27-2458): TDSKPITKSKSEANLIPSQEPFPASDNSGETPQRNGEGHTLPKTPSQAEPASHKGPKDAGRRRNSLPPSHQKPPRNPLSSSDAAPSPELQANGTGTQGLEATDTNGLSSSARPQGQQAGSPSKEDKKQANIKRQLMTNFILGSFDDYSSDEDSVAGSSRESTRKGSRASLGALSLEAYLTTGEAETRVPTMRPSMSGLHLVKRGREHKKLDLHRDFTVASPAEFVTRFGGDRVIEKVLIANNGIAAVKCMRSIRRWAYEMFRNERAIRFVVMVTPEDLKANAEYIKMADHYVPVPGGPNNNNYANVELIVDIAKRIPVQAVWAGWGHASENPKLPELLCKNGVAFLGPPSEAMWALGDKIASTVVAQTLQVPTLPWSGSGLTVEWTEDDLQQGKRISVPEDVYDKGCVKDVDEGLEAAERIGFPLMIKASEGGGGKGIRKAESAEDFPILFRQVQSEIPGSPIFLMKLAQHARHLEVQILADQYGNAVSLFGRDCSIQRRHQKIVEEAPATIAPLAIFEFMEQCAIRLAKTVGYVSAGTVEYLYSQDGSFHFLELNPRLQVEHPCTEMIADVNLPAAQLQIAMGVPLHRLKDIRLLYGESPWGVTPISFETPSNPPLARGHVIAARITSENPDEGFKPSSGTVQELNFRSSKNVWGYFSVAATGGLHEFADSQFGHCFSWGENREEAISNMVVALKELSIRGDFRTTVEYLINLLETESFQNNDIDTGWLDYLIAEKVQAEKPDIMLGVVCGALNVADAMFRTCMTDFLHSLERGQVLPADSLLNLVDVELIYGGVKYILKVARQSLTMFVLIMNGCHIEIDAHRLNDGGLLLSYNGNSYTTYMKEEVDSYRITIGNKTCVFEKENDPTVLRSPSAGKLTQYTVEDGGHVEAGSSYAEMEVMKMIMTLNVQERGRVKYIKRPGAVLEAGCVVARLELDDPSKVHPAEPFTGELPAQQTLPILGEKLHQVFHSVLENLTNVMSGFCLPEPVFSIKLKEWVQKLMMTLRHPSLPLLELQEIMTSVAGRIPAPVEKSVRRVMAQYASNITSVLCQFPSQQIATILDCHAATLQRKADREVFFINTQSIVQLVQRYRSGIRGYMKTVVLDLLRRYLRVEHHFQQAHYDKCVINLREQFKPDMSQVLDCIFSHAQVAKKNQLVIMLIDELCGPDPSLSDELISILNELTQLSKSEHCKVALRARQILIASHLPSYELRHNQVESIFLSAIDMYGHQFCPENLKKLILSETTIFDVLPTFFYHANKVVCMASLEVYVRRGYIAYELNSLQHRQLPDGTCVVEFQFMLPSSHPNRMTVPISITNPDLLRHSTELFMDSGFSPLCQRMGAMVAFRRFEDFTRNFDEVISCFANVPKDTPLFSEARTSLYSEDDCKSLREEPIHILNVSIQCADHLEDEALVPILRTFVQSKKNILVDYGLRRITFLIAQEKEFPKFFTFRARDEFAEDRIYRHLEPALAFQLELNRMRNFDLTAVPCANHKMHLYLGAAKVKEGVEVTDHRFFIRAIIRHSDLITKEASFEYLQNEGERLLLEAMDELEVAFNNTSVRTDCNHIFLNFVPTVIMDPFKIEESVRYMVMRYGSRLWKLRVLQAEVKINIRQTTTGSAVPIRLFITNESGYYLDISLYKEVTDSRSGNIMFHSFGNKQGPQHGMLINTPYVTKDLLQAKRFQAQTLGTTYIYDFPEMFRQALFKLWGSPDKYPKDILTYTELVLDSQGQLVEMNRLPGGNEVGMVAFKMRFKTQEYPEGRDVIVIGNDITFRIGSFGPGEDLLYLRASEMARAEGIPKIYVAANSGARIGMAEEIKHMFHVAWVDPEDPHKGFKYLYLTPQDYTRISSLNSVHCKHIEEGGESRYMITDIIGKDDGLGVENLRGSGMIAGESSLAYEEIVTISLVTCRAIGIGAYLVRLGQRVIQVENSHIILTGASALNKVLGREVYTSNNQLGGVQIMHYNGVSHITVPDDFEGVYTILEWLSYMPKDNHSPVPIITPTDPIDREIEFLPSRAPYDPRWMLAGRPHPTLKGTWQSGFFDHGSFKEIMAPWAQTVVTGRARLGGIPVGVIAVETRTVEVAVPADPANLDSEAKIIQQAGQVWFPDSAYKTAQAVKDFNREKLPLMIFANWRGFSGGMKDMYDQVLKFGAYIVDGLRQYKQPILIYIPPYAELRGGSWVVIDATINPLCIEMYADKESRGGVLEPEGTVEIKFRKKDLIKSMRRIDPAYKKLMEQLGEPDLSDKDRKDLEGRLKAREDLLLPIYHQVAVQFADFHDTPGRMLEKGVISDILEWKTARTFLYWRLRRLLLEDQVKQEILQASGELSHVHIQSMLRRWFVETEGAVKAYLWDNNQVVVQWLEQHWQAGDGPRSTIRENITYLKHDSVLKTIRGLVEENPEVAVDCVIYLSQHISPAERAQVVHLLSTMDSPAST

The target in the first assay is recombinant human ACC2 (Homo sapiens (Human), UniProt O00763). Description: Measurement of inhibitory activity on human ACC2 (MALDI-TOF MS, acetyl CoA to malonyl CoA conversion). Type of assay: biochemical. The settings on record: Table 154. The source says:
Preparation 1: Preparation of Recombinant Human ACC2
After a cDNA encoding human ACC2 (27 amino acid residue to 2458 amino acid residues from the N-terminus) was cloned from human kidney cDNA library (Clontech), human ACC2 gene containing His-tag sequence at 5′ terminus was inserted into pFastBac1 (Invitrogen). Recombinant baculovirus was generated using Bac-to-Bac baculovirus expression system (Invitrogen) according to the manufacturer's protocol. To express human ACC2, Sf-9 cells were infected with recombinant baculovirus. After infected cells were disrupted, the filtrated lysate was subjected to Ni-affinity chromatography and anion-exchange chromatography. The fractions containing human ACC2 protein were pooled as recombinant human ACC2 solution.
The Measurement of Inhibitory Activity on Human ACC1 and the ACC2
Recombinant human ACC1 and recombinant human ACC2, which were prepared by the method mentioned above, were preincubated with assay buffer solution (50 mM HEPES-KOH (pH 7.4), 10 mM magnesium chloride, 6-10 mM potassium citrate, 4 mM reduced form of glutathione, 1.5 mg/ml bovine serum albumin) for one hour. Then, 0.2 μL of each this invention compound solution (in DMSO) were dispensed to 384-well microplate, 5 μL of the preincubated enzyme solution and 5 μL of substrate solution (50 mM HEPES-KOH (pH 7.4), 1 mM ATP, 0.8 mM acetyl CoA and 25-50 mM potassium bicarbonate) were added to microplate. After centrifugation and shaking, the reaction mixtures were incubated in a humidified box at room temperature for 1 to 3 hours. After the incubation, the enzyme reactions were stopped by the addition of EDTA. Then, after the samples were cocrystallized with CHCA (α-cyano-4-hydroxy cinnamic acid) matrices on MALDI target plate, by using the matrix assist laser […] time-of-flight mass spectrometer (MALDI-TOF MS), samples were measured in reflector negative mode. Deprotonated ions of acetyl CoA (AcCoA) of substrate and malonyl CoA (MalCoA) of the reaction product were detected, then, the conversion rates of acetyl CoA to malonyl CoA was calculated by the intensity of [MalCoA-H]−/(Intensity of [MalCoA-H]−+Intensity of [AcCoA-H]−) using each signal strength. […] In addition, potassium citrate concentrations in assay buffer solution, potassium hydrogen carbonate concentrations in substrate solution and incubation time were adjusted by each lot of enzyme.
By IC50 is commonly meant the concentration that gives 50% inhibition. Turning to `CC(=O)N[C@@H](C)CO[C@H]1CC[C@H](Oc2ccc3nc(C(C)C)oc3c2Cl)CC1` [Compound I-064], the IC50 worked out at 1120 nM.
The same measure, in the same setting: next, `CCOc1nc2cc(Cl)c(Oc3cnc(OC[C@H](C)NC(C)=O)cn3)cc2s1` [Compound I-065]: 89 nM; `CC(=O)N[C@@H](C)CO[C@H]1CC[C@H](Oc2ccc3sc(C(C)C)nc3c2Cl)CC1` [Compound I-066]: 1300 nM.
In the case of `CCOc1nc2ccc(Oc3cnc(OC[C@H](C)NC(C)=O)cn3)c(C#N)c2s1` [Compound I-068], the IC50 came to 25 nM.
In the case of `CCOc1ncc2c(Cl)c(Oc3cnc(OC[C@H](C)NC(C)=O)cn3)ccc2n1` [Compound I-069], the IC50 came to 1400 nM.
On the same count and under the same terms, next, `CC(=O)N[C@@H](C)COc1cnc(Oc2ccc3sc(C(C)C)nc3c2Cl)cn1` [Compound I-070]: 469 nM.
Take `CCOc1nc2ccc(Oc3cnc(OC[C@H](C)NC(=O)CO)cn3)c(Cl)c2s1` [Compound I-071]: the half-maximal inhibitory concentration (IC50) came out at 54 nM.
Turning to `CC(=O)N[C@@H](C)COc1cnc(Oc2ccc3nc(N4CC(F)(F)C4)ncc3c2Cl)cn1` [Compound I-072], the IC50 is 154 nM.
The same measure, in the same setting: next, `CC(=O)N[C@@H](C)COc1cnc(Oc2ccc3nc(N4CCC(F)(F)CC4)ncc3c2Cl)cn1` [Compound I-073]: 221 nM; `CCOc1nc2ccc(O[C@H]3C[C@H](OC[C@H](C)NC(C)=O)C3)c(F)c2s1` [Compound I-074]: 85 nM.
In the case of `CCOc1nc2ccc(O[C@H]3C[C@H](OC[C@H](C)NC(C)=O)C3)c(Cl)c2s1` [Compound I-075], the IC50 came to 20 nM.
On the same count and under the same terms, the value for `CCOc1nc2ccc(O[C@H]3C[C@@H](OC[C@H](C)NC(C)=O)C3)c(F)c2s1` [Compound I-076] was 102 nM; that for `CCOc1nc2ccc(O[C@H]3C[C@@H](OC[C@H](C)NC(C)=O)C3)c(Cl)c2s1` [Compound I-077] was 168 nM.
Still for that read-out and setting: the value for `CCOc1nc2ccc(O[C@H]3CC[C@](C)(OC[C@H](C)NC(C)=O)CC3)c(F)c2s1` [Compound I-078] was 189 nM; that for `CC(=O)N[C@@H](C)COc1cnc(Oc2ccc3c(c2Cl)OCCN(CC(F)(F)F)C3=O)cn1` [Compound I-080] was 1290 nM.
Still for that read-out and setting: next, `CC(=O)N[C@@H](C)COc1cnc(Oc2ccc3c(c2Cl)OCCN(C(C)C)C3=O)cn1` [Compound I-082]: 3800 nM.
`CCOc1nc2ccc(O[C@H]3CC[C@](C)(OC[C@H](C)NC(C)=O)CC3)c(Cl)c2s1` [Compound I-083]: the IC50 is 351 nM.
Same read-out and setting: next, `CCOc1nc2ccc(OC[C@H]3C[C@@H](OC[C@H](C)NC(C)=O)C3)c(F)c2s1` [Compound I-086]: 42 nM.
As to `CCOc1nc2ccc(OC[C@H]3C[C@@H](OC[C@H](C)NC(C)=O)C3)c(Cl)c2s1` [Compound I-087], the IC50 amounted to 65 nM.
Same read-out and setting: next, `CCOc1nc2ccc(OC[C@H]3C[C@H](OC[C@H](C)NC(C)=O)C3)c(F)c2s1` [Compound I-088]: 15 nM.
The same measure, in the same setting: next, `CCOc1nc2ccc(OC[C@H]3C[C@H](OC[C@H](C)NC(C)=O)C3)c(Cl)c2s1` [Compound I-089]: 62 nM; `CC(=O)N[C@@H](C)COc1cnc(Oc2ccc(C(=O)Nc3ccc(F)cc3)c(F)c2F)cn1` [Compound I-090]: 45 nM; `CCOc1nc2ccc(Oc3cnc(OC[C@H](CO)NC(C)=O)cn3)c(F)c2s1` [Compound I-092]: 89 nM.
On the same count and under the same terms, the value for `CC(=O)N[C@@H](C)CO[C@H]1CC[C@H](Oc2ccc3c(c2Cl)OCCN(CC(F)(F)F)C3=O)CC1` [Compound I-094] was 187 nM; that for `CC(=O)N[C@@H](C)COc1cnc(Oc2ccc(C(=O)NCC(C)C)c(F)c2F)cn1` [Compound I-095] was 1050 nM; that for `CC(=O)N[C@@H](C)COc1cnc(Oc2ccc(C(=O)N3CCCCC3)c(F)c2F)cn1` [Compound I-096] was 775 nM.
Regarding `CC(=O)N[C@@H](C)CO[C@H]1C[C@H](COc2ccc3nc(C(C)(F)F)sc3c2F)C1` [Compound I-097], the IC50 came to 97 nM.
The same measure, in the same setting: the value for `CC(=O)N[C@@H](C)CO[C@H]1C[C@H](COc2ccc3nc(C(C)(C)O)sc3c2F)C1` [Compound I-099] was 148 nM; that for `CCOc1nc2cc(Cl)c(OC[C@H]3C[C@H](OC[C@H](C)NC(C)=O)C3)cc2s1` [Compound I-100] was 27 nM.
As to `CCOc1nc2ccc(OC[C@H]3C[C@H](OC[C@H](C)NC(C)=O)C3)cc2s1` [Compound I-101], the IC50 is 26 nM.
The same measure, in the same setting: next, `CC(=O)N[C@@H](C)CO[C@H]1CC[C@H](Oc2ncc(-c3ccccc3)cc2F)CC1` [Compound I-102]: 44 nM; `CC(=O)N[C@@H](C)CO[C@H]1CC[C@H](Oc2ncc(-c3ccccc3)cc2Cl)CC1` [Compound I-104]: 12 nM; `CC(=O)N[C@@H](C)CO[C@H]1CC[C@H](Oc2ncc(-c3ccccc3)cc2C#N)CC1` [Compound I-105]: 182 nM.

Staying with this assay, now noted: Tables 155-159.
For `CC(=O)N[C@@H](C)CO[C@H]1C[C@H](COc2ccc3nc(C(C)(F)F)sc3c2F)C1` [Compound I-107], the IC50 was 97 nM.
For `CC(=O)N[C@@H](C)CO[C@H]1C[C@H](COc2ccc3nc(C(C)(F)F)sc3c2Cl)C1` [Compound I-108], the IC50 worked out at 792 nM.
For the compound `CC(=O)N[C@@H](C)CO[C@H]1C[C@H](COc2ccc3nc(C(C)(C)O)sc3c2F)C1` [Compound I-109], the IC50 is 148 nM.
For the compound `CCOc1nc2cc(Cl)c(OC[C@H]3C[C@H](OC[C@H](C)NC(C)=O)C3)cc2s1` [Compound I-110], the IC50 came out at 27 nM.
Still for that read-out and setting: the value for `CCOc1nc2ccc(OC[C@H]3C[C@H](OC[C@H](C)NC(C)=O)C3)cc2s1` [Compound I-111] was 26 nM; that for `CC(=O)N[C@@H](C)CO[C@H]1CC[C@H](Oc2ccc3nc(OC(C)CF)sc3c2Cl)CC1` (stereo partly shown) [Compound I-112] was 31 nM; that for `CC(=O)N[C@@H](C)CO[C@H]1CC[C@H](Oc2ccc3nc(OC(C)C)sc3c2Cl)CC1` [Compound I-113] was 10 nM.
As for `CC(=O)N[C@@H](C)CO[C@H]1CC[C@H](Oc2cc3sc(OC(C)C)nc3cc2Cl)CC1` [Compound I-114], the IC50 stood at 193 nM.
The same measure, in the same setting: the value for `CCOc1nc2ccc(OC[C@]3(F)C[C@@H](OC[C@H](C)NC(C)=O)C3)c(F)c2s1` [Compound I-115] was 12 nM; that for `CCOc1nc2ccc(OC[C@]3(F)C[C@@H](OC[C@H](C)NC(C)=O)C3)c(Cl)c2s1` [Compound I-116] was 41 nM.
Still for that read-out and setting: the value for `CC(=O)N[C@@H](C)CO[C@H]1CC[C@H](Oc2ccc3nc(C4(F)CC4)sc3c2F)CC1` [Compound I-117] was 7 nM.
Still for that read-out and setting: the value for `CC(=O)N[C@@H](C)CO[C@H]1CC[C@H](Oc2ccc3nc(OC4CC4)sc3c2F)CC1` [Compound I-118] was 10 nM; that for `CC(=O)N[C@@H](C)CO[C@H]1CC[C@H](Oc2ccc3nc(OCC4CC4)sc3c2F)CC1` [Compound I-119] was 4 nM; that for `CC(=O)N[C@@H](C)CO[C@H]1CC[C@H](Oc2ccc3nc(OCC4(F)COC4)sc3c2F)CC1` [Compound I-120] was 22 nM.
Turning to `CC(=O)N[C@@H](C)CO[C@H]1CC[C@H](Oc2ccc3nc(OCC(F)(F)F)sc3c2F)CC1` [Compound I-121], the IC50 turned out to be 9 nM.
On the same count and under the same terms, the value for `CC(=O)N[C@@H](C)CO[C@H]1CC[C@H](Oc2ccc3nc(OC(C)C)sc3c2F)CC1` [Compound I-122] was 12 nM; that for `CC(=O)N[C@@H](C)CO[C@H]1CC[C@H](Oc2ccc3nc(OCC(F)F)sc3c2F)CC1` [Compound I-123] was 15 nM; that for `CC(=O)N[C@@H](C)CO[C@H]1CC[C@H](Oc2ccc3nc(Cl)sc3c2F)CC1` [Compound I-124] was 37 nM.
On the same count and under the same terms, next, `CC(=O)N[C@@H](C)CO[C@H]1CC[C@H](Oc2ccc3nc(OC4(C)CC4)sc3c2F)CC1` [Compound I-125]: 29 nM; `CC(=O)N[C@@H](C)CO[C@H]1C[C@H](COc2cc3sc(C(C)C)nc3cn2)C1` [Compound I-126]: 398 nM; `CC(=O)N[C@@H](C)CO[C@H]1C[C@H](COc2ccc3nc(C(C)C)sc3c2F)C1` [Compound I-127]: 84 nM.
Same read-out and setting: the value for `CC(=O)N[C@@H](C)CO[C@H]1C[C@H](COc2ccc3nc(C(C)C)sc3c2)C1` [Compound I-128] was 50 nM; that for `CC(=O)N[C@@H](C)CO[C@H]1CC[C@H](Oc2ccc3nc(OCC(C)(C)O)sc3c2F)CC1` [Compound I-129] was 139 nM; that for `CC(=O)N[C@@H](C)CO[C@H]1CC[C@H](Oc2ccc3nc(OC4COC4)sc3c2F)CC1` [Compound I-130] was 57 nM.
On to `CC(=O)N[C@@H](C)CO[C@H]1CC[C@H](Oc2ccc3nc(OCC(C)(C)OC4CCCCO4)sc3c2F)CC1` (stereo partly shown) [Compound I-131], for which the IC50 came to 334 nM.
